# Measurements: article PMC7737769, “Pharmacological inhibition of syntenin PDZ2 domain impairs breast cancer cell activities and exosome loading with syndecan and EpCAM cargo” (Journal of Extracellular Vesicles, 2020)
# Key:
# [1] = system: T1, syntenin‐Frizzled7 complex (GST-SyntFL / FZD7 peptide); experiment: HTRF assay, syntenin-Frizzled 7 interaction; type: biochemical, human
# T1 construct: residues 1–298 or syntenin full‐length (FL) for HTRF assays; made in house; host or cells: E. coli ER2566
# Procedure: (§1) HTRF assays were performed in white 96Well Small VolumeHiBase Polystyrene Microplates (Greiner) with a total working volume of […], as described previously (Milhas et al., 2016). Briefly, compounds were firstly dispensed into the wells at 400 µM for the primary screen or with serial DMSO dilutions for IC50 measurement assays. Primary screening assays have been performed in monoplicate while IC50 measurements were performed in triplicates. All HTRF reagents were purchased from CisBio Bioassays and reconstituted according to the supplier protocols. The plates were spun for 3 min at 500 × g and then incubated at 4°C for 16 h. The HTRF signals were recorded on a POLAR star Omega plate reader (BMG Labtech) with an excitation filter at 337 nm and fluorescence wavelength measurement at 620 and 665 nm, an integration delay of 60 µs and an integration time of 400 µs. Results were analysed with a two‐wavelength signal ratio: [intensity (665 nm)/intensity (620 nm)] × 10^4. Percentage of inhibition was calculated using the following equation: % inhibition = [(compound signal)–(min signal)]/[(max signal)–(min signal)] × 100, where ‘max signal’ is the signal ratio with the compound vehicle alone (DMSO) and ‘min signal’ the signal ratio without protein B. For IC50 measurements, values were normalized and fitted with Prism (GraphPad software) using the following equation: Y = 100/(1+((X/ IC50)ˆHill slope)).
# (§2) The search strategy for PDZ2 syntenin inhibitors was based on the PDZ targeted library developed from Enamine compound collection. The PDZ targeted library was developed to cover virtually all PDZ domains. Consequently, to create the syntenin PDZ2 focused library we used two independent paths: docking of the PDZ targeted library against structures of syntenin PDZ2 available in Protein Data Bank and a random selection from the PDZ targeted library. The docking has produced 21 virtual hits, which were added to 118 randomly selected compounds (10% of the pan PDZ library). The resultant set of 139 compounds, syntenin PDZ library was subjected to experimental validation. The primary screen was performed at 400µM using a previously validated Homogeneous Time Resolved Fluorescence (HTRF) assay (Milhas et al., 2016). HTRF is based on Fluorescence Resonance Energy Transfer (FRET) between two fluorescent reagents. In the present case, Anti‐GST‐Terbium antibody and streptavidin‐bound Dynamic2 were used as donor and acceptor respectively. Interactions between GST PDZ‐fusion proteins and biotinylated peptides containing PDZ binding motifs were challenged with the potential inhibitors. In parallel, control experiments were performed with a biotinylated‐GST to verify that compounds were not interfering with the FRET signal in a non‐specific manner. To identify inhibitors of syntenin PDZ interactions, we tested for the effect of the 139 compounds on syntenin‐SDC2 and syntenin‐Frizzled7 complexes (Figure 1a; Table S1). When the HTRF signal dropped below 0.9, inhibition was considered as effective. […] Noteworthy, these compounds had no effect on other PDZ complexes like GRASP55‐JAM‐B or GRASP55‐JAM‐C and Erbin‐Erbb2 or Erbin‐P0071 (Figure 1c).
# biotinylated‐GST = experiment: HTRF control with biotinylated-GST (non-specific interference with FRET signal)
# Procedure: as §1, §2
# Erbin‐Erbb2 complex = system: T2, Erbin‐Erbb2 complex; experiment: HTRF assay, Erbin-ERBB2 interaction; type: biochemical, human; conditions: 400µM compound; Figure 1c
# T2 construct: human Erbin PDZ domain; made in house; host or cells: E. coli BL21 (DE3)
# Procedure: as §1, §2
# GRASP55‐PDZ tandem = system: T3, GRASP55‐PDZ tandem; experiment: Surface plasmon resonance (BIAcore), GRASP55 PDZ tandem; type: binding, human; conditions: 50µM ‐1000 µM
# T3 construct: made in house; host or cells: Biotin XCell F' E. coli cells
# Procedure: All SPR experiments were conducted with a BIAcore T200 instrument (GE Healthcare), at 25°C. A total of 8000 resonance units (RU) of biotinylated ligands (N‐terminal 6xHis tagged biotinylated syntenin tandem, syntenin tandem with C terminus, GRASP55 tandem or GST as control) were immobilized on a streptavidin‐sensor chip (GE Healthcare). Analytes (C58 and SyntOFF compounds) were perfused at 30 µl per min in running buffer (10 mM HEPES pH 7.4, 150 mM NaCl, 0.005% Tween20) at different concentrations. The reference channel was N‐terminal 6xHis tagged biotinylated GST protein. The injection time was 240 s, long enough for the sensorgrams to reach equilibrium, and the dissociation time was 240 s. To carry out these SPR experiments, we employed the method known as ‘single‐cycle kinetics’ described in 2006 by Karlsson and co‐workers (Karlsson, Katsamba, Nordin, Pol, & Myszka, 2006). It consists in injecting the analyte at increasing concentrations, without regeneration steps between each sample injection to avoid that folded‐proteins can be damaged after regeneration steps. Equilibrium dissociation constants (KD) were calculated by fitting the data to a simple Langmuir binding isotherm using GraphPad Prism. For determination of the apparent KD, signals obtained at equilibrium were plotted as a function of compound concentration. […]
# MCF‐7 SyntKO cells = experiment: Wound-healing (migration) assay, MCF-7 SyntKO; type: cell-based; conditions: 100 µM, 24 h
# Procedure: For migration assays, cells were treated with 1 ng/ml of mitomycin (Sigma M4287) overnight to inhibit cell division. Treated cells were plated in Ibidi culture‐inserts (Ibidi Cat‐80206) for 12 h to reach 90%–95% of confluence with or without compounds (100 µM). A wound was created by removing inserts from the dishes. Medium with or without compounds (100 µM) was refreshed to remove dead cells and the cells were observed under an inverted light microscope (Leica SP2) equipped with a camera. Images were taken by MetaMorph software every 10 min for 24 h. Measurements of cell velocity were calculated using the MetaMorph software.
# MCF‐7 cells = experiment: Soft agar colony formation assay; type: cell-based; conditions: wild-type MCF-7, 100 µM
# Procedure: Agarose was melted in water and mixed with DMEM‐F12 medium pre‐incubated at 37°C to reach a 0.6% or a 0.36 % final concentration. A lower layer of 0.6% agarose was deposited in each well of a 96‐well plate except that the first and last rows and columns of the plate were filled with PBS to avoid drying. Agarose was allowed to cool for 15 min before the upper layer containing different concentrations of cells, a final concentration of 0.36% agarose and compounds (100 µM) was added. Compounds were added only once at the beginning of experiment. Each condition was tested in triplicate. Colonies were kept at 37°C in a 5% CO2 incubator and daily observed under microscope. At the end of the experiment, cells were tested for their ATP content, an indicator of their metabolic activity, using the Promega kit G7570. In this assay, ATP is used as a co‐factor for a luciferase reaction. Signals were analysed by measuring luminescence with a LUMIstar luminometer (BMG Labtech).
compound,measurement,setting,value
CC(C)[C@H](NC(=O)CSc1ccc(Cl)cc1)C(=O)O [Compound C58],GST SyntFL Frizzled 7 (signal ratio),"[1]; 400µM compound, Figure 1c",0.38
same,HTRF ASSAY GST-SyntFL FZD7 (HTRF signal ratio),"[1]; primary screen, 400 µM compound, signal below 0.9 considered effective inhibition, Table S1",0.39
same,GST-biot (signal ratio),"biotinylated‐GST; 400µM compound, Figure 1c",0.92
same,effect on control (biotinylated‐GST) FRET signals,"biotinylated‐GST; HTRF primary screen, 400µM",no significant effect
same,"HTRF ASSAY GST-biot (HTRF signal ratio, control)","biotinylated‐GST; primary screen, 400 µM compound, Table S1",1.01
same,GST-Erbin ERBB2 (signal ratio),Erbin‐Erbb2 complex,1.01
same,binding to GRASP55‐PDZ tandem,GRASP55‐PDZ tandem,no binding
same,cell migration (wound closure),MCF‐7 SyntKO cells,no such effect
same,colony formation in soft agar,MCF‐7 cells,decreases
